# Residues, ends and D or L forms follow the SMILES beside them.
# Key:
# [1] = test system: rats with alloxan diabetes; experiment: Insulin level in blood of alloxan diabetes rats (Example 5); assay type: in vivo, rat
# Procedure: The experiment was held on 18 white mongrel rats weighing an average 375±35 g. After the estimation of the blood glucose level all the animals were divided at random into 2 groups. Then all the animals were subjected to single intravenous injection with 1 ml of alloxan solution (“Spofa”) in dose of 35 mg/kg. 15 days later control animals were daily intraperitoneally administered with 0.3 ml of 0.9% NaCl solution, rats of the main group—with tetrapeptide Lys-Glu-Asp-Trp-NH2 [SEQ ID NO:1] in dose of 3 μg (in 0.3 ml of 0.9% NaCl) per rat during 11 days.
# [2] = test system: rats with alloxan diabetes; experiment: Insulin effect on blood glucose level in alloxan diabetes rats after tetrapeptide course (Example 7); assay type: in vivo, rat
# Procedure: The study was conducted on 13 male rats, enrolled in the previous trial (treatment variant—28 days after completion of Lys-Glu-Asp-Trp-NH2 [SEQ ID NO:1] tetrapeptide administration). 8 healthy rats of the similar body weight constituted a separate group. All the animals were administered intravenously with insulin (0.3 units) and glucose concentration in their blood was estimated hereafter.
# [3] = test system: rats with alloxan diabetes; experiment: Tetrapeptide in different doses on the course of alloxan diabetes in rats (Example 4); assay type: in vivo, rat; details: for increase in the blood glucose level as compared to the controls: dose of 1 μg; for decrease of glucose level: dose of 10 μg
# Procedure: The study was performed on 23 white mongrel male rats weighing on average […]. All the animals were subject to single intravenous administration of 1 ml of alloxan (“Spofa”) solution in dose of […].
# Then the animals were divided at random into 3 groups. Control animals were intraperitoneally administered with 0.3 ml of 0.9% NaCl solution once a day. Rats of the second and third group were administered with tetrapeptide Lys-Glu-Asp-Trp-NH2 [SEQ ID NO:1] in dose of 1 μg (in 0.1 ml of 0.9% NaCl solution) and 10 μg (in 1.0 ml of 0.9% NaCl solution) per rat during 7 days.
# [4] = Toxicity (experimentally proved)
# [5] = test system: rats with alloxan diabetes; experiment: Course of alloxan diabetes in rats, treatment variant (Example 2); assay type: in vivo, rat; details: for decrease of the blood glucose level: throughout the whole study
# Procedure: The study was conducted on 21 white mongrel male rats with average body weight 375±35 g. After estimation of glucose concentration in the blood all the animals were divided at random into 2 groups. Then all the animals were exposed to single intravenous administration 1 ml of alloxan solution (“Spofa”) in dose 35 mg/kg. In 15 days control animals were administered once a day intraperitoneally with 0.3 ml 0.9% NaCl solution, rats of the main group were administered with Lys-Glu-Asp-Trp-NH2 [SEQ ID NO:1] in dose 3 μg (in 0.3 ml of 0.9% NaCl solution) per rat during 11 days.
# [6] = test system: patients with diabetes mellitus; experiment: Clinical application in patients with diabetes mellitus (Example 8); assay type: in vivo, human; details: for blood glucose level on an empty stomach: 10 μg i.m. 10 days
# Procedure: The investigation was carried out in 36 patients aged from 16 to 83 years (7 men, 29 women). In 23 patients there was diagnosed type 1 diabetes, in 13 patients—type 2 diabetes. The disease duration varied from 1 year to 30 years. 32 patients received insulin. The majority of the patients suffering diabetes mellitus entered the hospital decompensated. Blood glucose level in these patients on an empty stomach oscillated from […]; the glycosylated haemoglobin—from 7.8 to 12.7%. All the patients were prescribed a rigid diet. All the patients were stratified randomly into 2 groups, with respect to age, sex, duration and stage of the disease (Table 7). Alongside with standard method of treatment 16 patients were prescribed Lys-Glu-Asp-Trp-NH2 [SEQ ID NO:1] tetrapeptide in dose of 10 μg (in 1 ml of 0.9% NaCl solution) intramuscularly once a day for 10 days. 4 patients suffering type 2 diabetes mellitus were prescribed together with standard treatment course Lys-Glu-Asp-Trp-NH2 [SEQ ID NO:1] tetrapeptide in dose of 100 μg (1 tablet) twice a day before meals during 10 days. Patients of the control group were administered with 1 ml of 0.9% of NaCl solution as a placebo following the same scheme.
# [7] = 8 days since the onset of tetrapeptide administration, 3 μg per rat i.p. daily
# [8] = 15 days after alloxan administration, before peptide
# [9] = of 16 insulin-treated patients, 10 μg i.m. once a day for 10 days
# [10] = tablets, patients treated with oral anti-diabetic medicine
smiles,measurement,setting,value
"NCCCC[C@H](N)C(=O)N[C@@H](CCC(=O)O)C(=O)N[C@@H](CC(=O)O)C(=O)N[C@@H](Cc1c[nH]c2ccccc12)C(N)=O [Lys-Glu-Asp-Trp-NH2, lysyl-glutamyl-aspartyl-tryptophane amid] (H-KEDW-NH2)",animals alive,[1]; 70th day after alloxan administration (control 62.5%),70%
same,Insulin content in blood,[1]; 1 day after the completion of tetrapeptide administration,3.6 ± 0.7 mkIU/ml
same,"insulin content in the blood, higher than in the control group",[1]; 8 days of substance administration,3.9 fold
same,Insulin content in blood,[1]; [7],3.1 ± 1.1 mkIU/ml
same,Insulin content in blood,[1]; 9 days after the completion of tetrapeptide administration,3.2 ± 0.5 mkIU/ml
same,Insulin content in blood,[1]; [8],1.5 ± 0.4 mkIU/ml
same,Insulin content in blood,[1]; 18 days after the completion of tetrapeptide administration,4.3 ± 0.5 mkIU/ml
same,Insulin content in blood,[1]; 28 days after the completion of tetrapeptide administration,4.1 ± 0.6 mkIU/ml
same,Insulin content in blood,[1]; 44 days after the completion of tetrapeptide administration,3.9 ± 1.1 mkIU/ml
same,amount of insulin in the blood,"[1]; all the following estimations, no insulin in control animals",13-18%
same,Insulin content in blood,[1]; initial level,23.8 ± 2.8 mkIU/ml
same,Decrease in glucose content with respect to initial level,[2]; 30 minutes after insulin administration,44.2%
same,Glucose Concentration in blood,[2]; 30 minutes after insulin administration (0.3 units i.v.),123.6 ± 8.3 mg %
same,Glucose Concentration in blood,"[2]; initial level, 28 days after course completion",221.5 ± 11.2 mg %
same,decrease of the glucose level after insulin administration as compared to the control group,"[2]; rat, in vivo",two-fold
same,Glucose Concentration in blood,"[3]; 1 mkg group, 7 days after alloxan administration",245.6 ± 12.3 mg %
same,Glucose Concentration in blood,"[3]; 1 mkg group, 14 days after alloxan administration",261.7 ± 12.3 mg %
same,Glucose Concentration in blood,"[3]; 1 mkg group, initial level",80.6 ± 2.8 mg %
same,Glucose Concentration in blood,"[3]; 1 mkg per rat, 7 days, 1 day after tetrapeptide administration",228.3 ± 10.7 mg %
same,Glucose Concentration in blood,"[3]; 1 mkg per rat, 4 days after tetrapeptide administration",244.4 ± 12.2 mg %
same,Glucose Concentration in blood,"[3]; 1 mkg per rat, 7 days after tetrapeptide administration",269.4 ± 8.6 mg %
same,Glucose Concentration in blood,"[3]; 1 mkg per rat, 14 days after tetrapeptide administration",268.8 ± 12.4 mg %
same,Glucose Concentration in blood,"[3]; 1 mkg per rat, 21 days after tetrapeptide administration",272.5 ± 9.9 mg %
same,Glucose Concentration in blood,"[3]; 10 mkg group, 7 days after alloxan administration",247.2 ± 14.0 mg %
same,Glucose Concentration in blood,"[3]; 10 mkg group, 14 days after alloxan administration",252.2 ± 7.9 mg %
same,Glucose Concentration in blood,"[3]; 10 mkg group, initial level",83.9 ± 3.4 mg %
same,Glucose Concentration in blood,"[3]; 10 mkg per rat, 7 days, 1 day after tetrapeptide administration",193.3 ± 6.7 mg %
same,Glucose Concentration in blood,"[3]; 10 mkg per rat, 4 days after tetrapeptide administration",212.2 ± 7.3 mg %
same,Glucose Concentration in blood,"[3]; 10 mkg per rat, 7 days after tetrapeptide administration",205.6 ± 8.4 mg %
same,Glucose Concentration in blood,"[3]; 10 mkg per rat, 14 days after tetrapeptide administration",240.0 ± 7.9 mg %
same,Glucose Concentration in blood,"[3]; 10 mkg per rat, 21 days after tetrapeptide administration",248.3 ± 13.5 mg %
same,increase in the blood glucose level as compared to the controls,[3]; 1st day after completion of the course,17.3%
same,increase in the blood glucose level as compared to the controls,[3]; 4th day after completion of the course,12.3%
same,decrease of glucose level,[3]; day 1,30%
same,decrease of glucose level,[3]; day 4,23.8%
same,decrease of glucose level,[3]; day 7,26%
same,decrease of glucose level,[3]; day 17,12.7%
same,toxicity,[4],non-toxic
same,Glucose Concentration in the blood,"[5]; 1 day upon completion of peptide administration (3 μg per rat, 11 days)",222.5 ± 10.3 mg %
same,Glucose Concentration in the blood,[5]; [7],254.5 ± 16.2 mg %
same,Glucose Concentration in the blood,[5]; 9 days upon completion of peptide administration,183.9 ± 10.5 mg %
same,Glucose Concentration in the blood,[5]; [8],333.6 ± 12.4 mg %
same,Glucose Concentration in the blood,[5]; 18 days upon completion of peptide administration,236.7 ± 10.3 mg %
same,Glucose Concentration in the blood,[5]; 28 days upon completion of peptide administration,221.5 ± 11.2 mg %
same,Glucose Concentration in the blood,[5]; 44 days upon completion of peptide administration,210.8 ± 9.3 mg %
same,Glucose Concentration in the blood,[5]; 58 days upon completion of peptide administration,198.9 mg %
same,lethality,"[5]; by the end of the investigation, 84 days after alloxan (control 70%)",36.4%
same,Glucose Concentration in the blood,"[5]; initial level, before alloxan and before peptide",81.1 ± 3.8 mg %
same,decrease of the blood glucose level,[5]; overall figure,38.4%
same,decrease of the blood glucose level,[5]; range in brackets,30-47.7%
same,lethality decrease,[5]; versus control group,two-fold
same,decrease of daily insulin dose as compared to the initial level,[6]; Case No. 1,26 units
same,coagulogram indices,"[6]; Case No. 1, at discharge",pronounced improvement
same,Daily dose of insulin,"[6]; Case No. 1, at discharge, on admission 82 units",56 units
same,blood glucose level on an empty stomach,"[6]; Case No. 1, type 2 diabetes, discharge on the 18th day, on admission 10 μmol/l",5.9 mM
same,decrease of daily insulin dose as compared to the initial level,[6]; Case No. 2,8 units
same,Daily norm of insulin,"[6]; Case No. 2, at discharge, on admission 40 units",32 units
same,blood glucose level on an empty stomach,"[6]; Case No. 2, type 1 diabetes, discharge on the 15th day, on admission 17.8 μmol/l",3.4 mM
same,reduction of the dose of diabeton,[6]; Case No. 3,two-fold
same,blood glucose level,"[6]; Case No. 3, after the completion of the treatment course",remained within the norm
same,glucose level on an empty stomach,"[6]; Case No. 3, type 2 diabetes, second day, 100 μg tablet twice a day with 2 diabeton tablets, on admission 11 μmol/l",6 mM
same,patients of the main group with decrease of insulin dose,[6]; none in control group,50%
same,"Decreased insulin dose necessary to achieve compensation, number of patients",[6]; [9],8
same,"Increased insulin dose necessary to achieve compensation, number of patients",[6]; [9],2
same,"The same insulin dose necessary to achieve compensation, number of patients",[6]; [9],6
same,reduction of the insulin daily dose,"[6]; on average, in 8 patients out of 16",8 units
same,reduction of the dose of insulin,[6]; patients who received tetrapeptide in tablets daily,25 units
same,compensation,[6]; [10],full compensation
same,reduction of the dose of oral anti-diabetic preparations,[6]; [10],two-fold
same,insulin dose increase to achieve compensation,[6]; the 1st patient,4 units
same,insulin dose increase to achieve compensation,[6]; the 2nd patient,14 units

# Source: patent US7491703B2, “Tetrapeptide regulating blood glucose level in diabetes mellitus” (“Access Bioscience” CJSC, priority 2003, dated 2009)
